Assay results reported in patent US20200306295A1, “METHOD AND DEVICE FOR ANNIHILATION OF Staphylococcus aureus” (priority 2017, published 2020).

Experiments:
[1] = tested on: S. aureus (ATCC 6538) biofilm; conditions: blue light plus low-concentration H2O2
stationary-phase MRSA = experiment: Time-killing assay in PBS with or without pulsed laser (CFU enumeration); type: cell-based, S. aureus
Description: To quantify viable bacterial cells, CFU experiments were performed. 100 μl of sample analyte was transferred into a 96-well plate and then three or four ten-fold serial dilution achieved by transferring 20 μl bacterial culture into 180 μl 1×PBS in the next dilution row. After serial dilution, an aliquot (4 μl) from each well was spotted onto sterile TSA plates. After incubating the plates overnight (˜18 hours) at 37° C., the colonies were enumerated, and cell number was calculated in CFU/ml. For each CFU enumeration experiment, three independent replicates were applied.
Stationary-phase MRSA was prepared, washed and resuspended in 1×PBS at two-times of its original concentration. […] After laser treatment, the droplets were resuspended into 200 μl of 1×PBS (1:40 dilution) supplemented with antibiotics at different concentrations in a mini centrifuge tube (89166-278, VWR international). For example, daptomycin was added into MRSA solution after laser treatment at desired concentration of 0×MIC, 5×MIC, 10×MIC, 30×MIC, or 100×MIC supplemented with 50 μg/ml CaCl2). Corresponding groups without laser treatment were also conducted for comparison. These tubes were incubated within an orbital incubator (37° C., 200 rpm) for different incubation time. At each specific time point, 40 μl of aliquot from each group was transferred to a 96-well plate for follow-up CFU enumerating assay. In the case of tobramycin, additional antibiotic washing by 1×PBS was performed before the CFU experiment to avoid antibiotic interference. For time-killing assay in fresh human whole blood, similar protocol was followed as above, except that 1×PBS was replaced by fresh human whole blood and the initial stationary-phase MRSA solution was diluted by ten times with a concentration of ˜10^7 CFU/ml.

MRSA USA300 [2] = tested on: MRSA USA300
Description: Thereafter, an aliquot (20 μL) of the bacterial suspension was transferred onto a glass slide. Samples were exposed to blue light at different time-lengths and variable light intensities. […] The solutions were cultured for 20 min. The solution was serially diluted in sterile PBS and transferred to LB plates in order to enumerate the viable number of MRSA colony-forming units (CFUs). […] Data are presented as viable MRSA CFU/mL and percent survival of MRSA CFU/mL in the treated groups.
Additive was defined as an FIC index of 1. Antagonism was defined as an FIC index of >4.

MRSA USA300 [3] = experiment: In vivo MRSA mice wound model (blue light, H2O2, fusidic acid); set-up: species or system Balb/c mice
From the text: To initiate the formation of a skin wound, five groups (n=5) of eight-week old female Balb/c mice (obtained from Harlan Laboratories, Indianapolis, Ind., USA) were disinfected with ethanol (70%) and shaved on the middle of the back (approximately a one-inch by one-inch square region around the injection site) one day prior to infection as described from a reported procedure (3). To prepare the bacterial inoculum, an aliquot of overnight culture of MRSA USA300 was transferred to fresh Tryptic soy broth and shaken at 37° C. until an OD600 value of ˜1.0 was achieved. The cells were centrifuged, washed once with PBS, re-centrifuged, and then re-suspended in PBS. Mice subsequently received an intradermal injection (40 μL) containing 2.40×10^9 CFU/mL MRSA USA300. An open wound formed at the site of injection for each mouse, ˜60 hrs post-infection.
One group of mice was left untreated (negative control). Each group of mice receiving a particular treatment regimen was housed separately in a ventilated cage with appropriate bedding, food, and water. Mice were checked twice daily during infection and treatment to ensure no adverse reactions were observed. Mice were treated twice daily (once every 12 hours) for three days, before they were humanely euthanized via CO2 asphyxiation 12 hours after the last dose was administered. The region around the skin wound was lightly swabbed with ethanol (70%) and excised. The tissue was subsequently homogenized in PBS. The homogenized tissue was then serially diluted in PBS before plating onto mannitol salt agar plates. Plates were incubated for at least 19 hours at 37° C. before viable MRSA CFU/mL were counted for each group. Outlier was removed based upon the Dixon Q Test.

[4] = agent alone, topical, twice a day for three days

SMILES | MRSA killed inside biofilm [1] [%] | killing of stationary-phase MRSA (stationary-phase MRSA; 220 μM with laser treatment, within 2 hours) [log] | killing of stationary-phase MRSA (stationary-phase MRSA; alone, at 22 mM high concentration) | MRSA killing (CFUs) (MRSA USA300 [2]; 13.2 mM H2O2 combined with blue light 108 J/cm^2, ~10^7 MRSA) | MRSA scavenged (MRSA USA300 [2]; 5-min culture with H2O2 after 2-min blue light exposure (24 J/cm^2)) [%] | antimicrobial efficiency relative to 2-min blue light alone (MRSA USA300 [2]; H2O2 20 min, 13.2 mM after 2-min blue light (24 J/cm^2)) | FIC index (MRSA USA300 [2]; blue light and H2O2 against MRSA, ≤0.5 is synergy, according to estimation) | pus formation in wound after sacrifice (MRSA USA300 [3]; [4]) | CFU reduction in wound tissue compared to the control group (MRSA USA300 [3]; blue light (24 J/cm^2) and 13.2 mM H2O2, twice daily for three days) | CFU reduction in wound tissue compared to fusidic acid-treated group (MRSA USA300 [3]; blue light and H2O2-treated group) | pus formation in wound after sacrifice (MRSA USA300 [3]; blue light plus H2O2)
OO [H2O2, hydrogen peroxide] | 92 | 4 | minor killing | eradicated all MRSA | 60 | Two times antimicrobial efficiency | ≤ 0.38 | didn't show this sign | around 1.5 log | around one more log reduction | didn't show this sign
CC(=O)O[C@H]1C[C@@]2(C)[C@@H](C[C@@H](O)[C@H]3[C@@]4(C)CC[C@@H](O)[C@@H](C)[C@@H]4CC[C@@]32C)/C1=C(\CCC=C(C)C)C(=O)O [fusidic acid] |  |  |  |  |  |  |  | showed the formation of pus |  |  | 
